Measured values published in PubChem BioAssay AID1918947 (Molecular Pharmacology Branch, DTP, NCI, 2023).
pIC50: −log10 of the molar value. Values joined by “and” are separate entries in the source; they are usually repeats but may differ in a detail not shown here. Equal entries are not always repeated.

Test system: A498 complex spheroid viability
Assay: Anticancer human tumor A498 cell line growth inhibition;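 further: spheroids exposed to agents for seven days before readout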;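 on viability, T/C: 100% = DMSO vehicle-treated spheroids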
Conditions: for viability, T/C: stronger effect = lower value; active means viability on the fitted dose curve at most 10% of control; inactive means the rest
How it was run: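 Multicellular complex spheroids of tumor cells with human endothelial cells (HUVEC) and mesenchymal stem cells; the LSD1 inhibitor iadademstat was combined with standard-of-care or investigational agents. Top concentration at or near clinical Cmax, half-log dilutions; final DMSO ≤0.25%.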

[1] = curve of first compound, second compound 0.1 µM
[2] = curve of first compound, second compound 0.316 µM
[3] = curve of first compound, second compound 1 µM
[4] = curve of first compound, second compound 3.16 µM
[5] = curve of first compound, second compound 10 µM
[6] = second compound 0.1 µM, first compound 0.0316 µM
[7] = second compound 0.1 µM, first compound 0.1 µM
[8] = second compound 0.316 µM, first compound 0.0316 µM
[9] = second compound 0.316 µM, first compound 0.1 µM
[10] = second compound 1 µM, first compound 0.0316 µM
[11] = second compound 1 µM, first compound 0.1 µM
[12] = second compound 3.16 µM, first compound 0.0316 µM
[13] = second compound 3.16 µM, first compound 0.1 µM
[14] = second compound 10 µM, first compound 0.0316 µM
[15] = second compound 10 µM, first compound 0.1 µM

COc1ccc([C@@H](O)c2cc(-c3ncnc4cc(N5CCOCC5)ccc34)c(F)cc2Cl)nn1 + NC1CC1c1ccc(-c2cccc(O)c2)cc1
inactive: viability, T/C [6] 75% | viability, T/C [7] 49.5% | viability, T/C (second compound 0.1 µM, first compound 0.316 µM) 28.1% | viability, T/C (second compound 0.1 µM, first compound 1 µM) 16.7% | viability, T/C [8] 80.4% | viability, T/C [9] 52.9% | viability, T/C (second compound 0.316 µM, first compound 0.316 µM) 28.8% | viability, T/C (second compound 0.316 µM, first compound 1 µM) 19.5% | viability, T/C (second compound 0.316 µM, first compound 3.16 µM) 9.72% | viability, T/C [10] 70.6% | viability, T/C [11] 50.1% | viability, T/C (second compound 1 µM, first compound 0.316 µM) 27.4% | viability, T/C (second compound 1 µM, first compound 1 µM) 17.2% | viability, T/C [12] 73.1% | viability, T/C [13] 46.8% | viability, T/C (second compound 3.16 µM, first compound 0.316 µM) 29.7% | viability, T/C (second compound 3.16 µM, first compound 1 µM) 16.7% | viability, T/C [14] 67.1% | viability, T/C [15] 42.5% | viability, T/C (second compound 10 µM, first compound 0.316 µM) 24.5% | viability, T/C (second compound 10 µM, first compound 1 µM) 16.6%
active: viability, T/C (second compound 0.1 µM, first compound 3.16 µM) 9.62% | viability, T/C (second compound 0.1 µM, first compound 10 µM) 5.97% | viability, T/C (second compound 0.316 µM, first compound 10 µM) 6.4% | viability, T/C (second compound 1 µM, first compound 3.16 µM) 9.2% | viability, T/C (second compound 1 µM, first compound 10 µM) 6.15% | viability, T/C (second compound 3.16 µM, first compound 3.16 µM) 8.9% | viability, T/C (second compound 3.16 µM, first compound 10 µM) 5.52% | viability, T/C (second compound 10 µM, first compound 3.16 µM) 8.67% | viability, T/C (second compound 10 µM, first compound 10 µM) 5.51%
6.95: pIC50 [2]
7.02: pIC50 [1] | pIC50 [3]
7.05: pIC50 [4]
7.16: pIC50 [5]

CC[C@@]1(O)C(=O)OCc2c1cc1n(c2=O)Cc2cc3c(CN(C)C)c(O)ccc3nc2-1 + NC1CC1c1ccc(-c2cccc(O)c2)cc1
7.52: pIC50 [4]
inactive: viability, T/C (second compound 0.1 µM, first compound 0.000316 µM) 105% | viability, T/C (second compound 0.1 µM, first compound 0.001 µM) 106% | viability, T/C (second compound 0.1 µM, first compound 0.00316 µM) 79.1% | viability, T/C (second compound 0.1 µM, first compound 0.01 µM) 76.4% | viability, T/C [6] 60.6% | viability, T/C [7] 29.8% | viability, T/C (second compound 0.316 µM, first compound 0.000316 µM) 110% | viability, T/C (second compound 0.316 µM, first compound 0.001 µM) 103% | viability, T/C (second compound 0.316 µM, first compound 0.00316 µM) 82.2% | viability, T/C (second compound 0.316 µM, first compound 0.01 µM) 73.1% | viability, T/C [8] 59.6% | viability, T/C [9] 33.8% | viability, T/C (second compound 1 µM, first compound 0.000316 µM) 102% | viability, T/C (second compound 1 µM, first compound 0.001 µM) 103% | viability, T/C (second compound 1 µM, first compound 0.00316 µM) 86.5% | viability, T/C (second compound 1 µM, first compound 0.01 µM) 69.4% | viability, T/C [10] 55.8% | viability, T/C [11] 32.9% | viability, T/C (second compound 3.16 µM, first compound 0.000316 µM) 104% | viability, T/C (second compound 3.16 µM, first compound 0.001 µM) 95.4% | viability, T/C (second compound 3.16 µM, first compound 0.00316 µM) 74.6% | viability, T/C (second compound 3.16 µM, first compound 0.01 µM) 60.5% | viability, T/C [12] 58.8% | viability, T/C [13] 29.5% | viability, T/C (second compound 10 µM, first compound 0.000316 µM) 103% | viability, T/C (second compound 10 µM, first compound 0.001 µM) 92.4% | viability, T/C (second compound 10 µM, first compound 0.00316 µM) 75.8% | viability, T/C (second compound 10 µM, first compound 0.01 µM) 65.5% | viability, T/C [14] 49% | viability, T/C [15] 27.7%
7.37: pIC50 [1]
7.58: pIC50 [5]
7.42: pIC50 [3]
7.36: pIC50 [2]

CCc1c2c(nc3ccc(O)cc13)-c1cc3c(c(=O)n1C2)COC(=O)[C@]3(O)CC
active: viability, T/C (compound 0.03 µM) 1.45% and 0.7% | viability, T/C (compound 0.0949 µM) 0.15% | viability, T/C (compound 0.3 µM) 0.18% and 0.21%
inactive: viability, T/C (compound 0.000949 µM) 42.1% and 37.3% | viability, T/C (compound 0.003 µM) 33% and 33.4% | viability, T/C (compound 0.00949 µM) 24.4% and 22.1%
> 9.02: pIC50 (curve of compound)
